Results: US20230131427A1, “FUNGICIDAL COMPOSITIONS” (SYNGENTA CROP PROTECTION AG, priority 2020, published 2023)
Where two headings read alike, the source gives them in different places.

How the values were obtained:
Phakopsora pachyrhizi = experiment: Example B5: preventative activity against Phakopsora pachyrhizi (soybean rust), whole soybean plants sprayed, leaf disks inoculated; type: in vivo; details: for inhibition at 22.5 g/ha / inhibition at 45 g/ha / inhibition at 90 g/ha / inhibition at 225 g/ha / inhibition at 450 g/ha / inhibition at 2.25 g/ha / inhibition at 4.5 g/ha / inhibition at 18 g/ha: Phakopsora pachyrhizi, foliar
Procedure: Whole soybean plants are treated with the recited active ingredients 4 weeks after planting. 1 day after spraying leaf disks are cut from the first trifoliate leaf. Five repetitions at each rate are conducted. The leaf disks are inoculated with Phakopsora pachyrhizi (Asian soybean rust) one day after treatment.
Evaluation of the leaf disks is conducted 11 to 14 days after inoculation and the activity is derived from the relation of the treated vs untreated, infested check (100=no disease, no damage to the leaf, 0=high infestation, leaf damaged heavily). The rates of the active ingredients used are given in the tables as g active ingredient (a.i.)/ha.

Septoria glycines = experiment: Example B2: mixtures, preventative activity against Septoria glycines (brown spot), liquid culture; type: cell-based; details: component B alone
Text: (§1) This occurs whenever the action of an active ingredient combination is greater than the sum of the actions of the individual components. The action to be expected E for a given active ingredient combination obeys the so-called COLBY formula and can be calculated as follows (COLBY, S. R. “Calculating synergistic and antagonistic responses of herbicide combination”. Weeds, Vol. 15, pages 20-22; 1967):
(§2) If the action actually observed (O) is greater than the expected action (E), then the action of the combination is super-additive, i.e. there is a synergistic effect. In mathematical terms, synergism corresponds to a positive value for the difference of (O-E). In the case of purely complementary addition of activities (expected activity), said difference (O-E) is zero. A negative value of said difference (O-E) signals a loss of activity compared to the expected activity.
Conidia of the fungus harvested from a fresh culture grown on artificial media, were directly mixed into nutrient broth (PDB potato dextrose broth). A DMSO solution of the test compounds was placed into a microtiter plate (96-well format) and the nutrient broth containing the fungal spores was added to it.
(§3) Fungicidal activity was evaluated on a 100-0 scale (100=no disease growth; 0=well completely covered by mycelium).

Septoria tritici = experiment: Example B3: mixtures, preventative activity against Septoria tritici (leaf blotch), liquid culture; type: cell-based; details: component B alone
Text: as §1, §2
(§4) Conidia of the fungus from cryogenic storage were directly mixed into nutrient broth (PDB potato dextrose broth). A DMSO solution of the test compounds was placed into a microtiter plate (96-well format) and the nutrient broth containing the fungal spores was added to it.
as §3

[1] = test system: Glomerella lagenarium syn. Colletotrichum lagenarium; experiment: Example B1: mixtures, preventative activity against Glomerella lagenarium syn. Colletotrichum lagenarium, liquid culture; type: cell-based; details: component B alone; for inhibition at 0.1 ppm / inhibition at 0.3 ppm: Colletotrichum orbiculare, read-out: Activity (%) B
Text: as §1, §2, §4, §3

[2] = active ingredient alone, 22.5 g/ha, read-out: Observed Activity (%) (% of untreated)
[3] = active ingredient alone, 45 g/ha, read-out: Observed Activity (%) (% of untreated)
[4] = active ingredient alone, 90 g/ha, read-out: Observed Activity (%) (% of untreated)
[5] = applied alone, 22.5 g/ha, read-out: Observed Activity (% of untreated) against Phakopsora pachyrhizi
[6] = applied alone, 45 g/ha, read-out: Observed Activity (% of untreated) against Phakopsora pachyrhizi
[7] = applied alone, 90 g/ha, read-out: Observed Activity (% of untreated) against Phakopsora pachyrhizi
[8] = read-out: Observed Activity (% of untreated) against Phakopsora pachyrhizi
[9] = read-out: Observed Activity (%) (% of untreated) against Phakopsora pachyrhizi
[10] = Septoria glycines, 0.1 ppm, 100-0 scale, read-out: Activity (%) B
[11] = Septoria glycines, 0.3 ppm, 100-0 scale
[12] = Zymoseptoria tritici, 0.1 ppm, 100-0 scale, read-out: Activity (%) B

Compound: CC1COC(Cn2cncn2)(c2ccc(Oc3ccc(Cl)cc3)cc2Cl)O1 (centres unmarked) [Difenoconazole]
- inhibition at 22.5 g/ha (Phakopsora pachyrhizi; [2]): 3%
- inhibition at 45 g/ha (Phakopsora pachyrhizi; [3]): 10%
- inhibition at 90 g/ha (Phakopsora pachyrhizi; [4]): 24%
- inhibition at 22.5 g/ha (Phakopsora pachyrhizi; [5]): 3%
- inhibition at 45 g/ha (Phakopsora pachyrhizi; [6]): 10%
- inhibition at 90 g/ha (Phakopsora pachyrhizi; [7]): 24%

Compound: CC(Cc1ccc(C(C)(C)C)cc1)CN1CCCCC1 (centres unmarked) [Fenpropidin]
- inhibition at 225 g/ha (Phakopsora pachyrhizi; applied alone, 225 g/ha, read-out: Observed Activity (% of untreated) against Phakopsora pachyrhizi): 72%
- inhibition at 225 g/ha (Phakopsora pachyrhizi; applied alone, 225 g/ha, read-out: Observed Activity (%) (% of untreated) against Phakopsora pachyrhizi): 72%
- inhibition at 450 g/ha (Phakopsora pachyrhizi; applied alone, 450 g/ha, read-out: Observed Activity (% of untreated) against Phakopsora pachyrhizi): 77%
- inhibition at 450 g/ha (Phakopsora pachyrhizi; applied alone, 450 g/ha, read-out: Observed Activity (%) (% of untreated) against Phakopsora pachyrhizi): 77%

Compound: O=C(O)CNCP(=O)(O)O [Glyphosate]
- inhibition at 45 g/ha (Phakopsora pachyrhizi; [8]): 1%
- inhibition at 90 g/ha (Phakopsora pachyrhizi; [8]): 0%
- inhibition at 45 g/ha (Phakopsora pachyrhizi; [9]): 1%
- inhibition at 90 g/ha (Phakopsora pachyrhizi; [9]): 0%

Compound: CC(C)c1ccc(Cl)cc1CN(C(=O)c1c(C(F)F)nn(C)c1F)C1CC1 [Isoflucypram]
- Observed Activity (% of untreated) against Phakopsora pachyrhizi (Phakopsora pachyrhizi; applied alone, 2.25 g/ha): 2%
- Observed Activity (% of untreated) against Phakopsora pachyrhizi (Phakopsora pachyrhizi; applied alone, 4.5 g/ha): 1%
- Observed Activity (% of untreated) against Phakopsora pachyrhizi (Phakopsora pachyrhizi; applied alone, 9 g/ha): 0%

Compound: O=C(Nc1ccccc1F)c1ccc(-c2noc(C(F)(F)F)n2)cc1 [N-(2-fluorophenyl)-4-[5-(trifluoromethyl)-1,2,4-oxadiazol-3-yl]benzamide]
- inhibition at 10 ppm (Septoria glycines; Septoria glycines): 0%
- inhibition at 10 ppm (Septoria glycines; Septoria glycines, 100-0 scale): 0%
- inhibition at 20 ppm (Septoria glycines; Septoria glycines): 0%
- inhibition at 20 ppm (Septoria glycines; Septoria glycines, 100-0 scale): 0%
- inhibition at 10 ppm (Septoria tritici; Zymoseptoria tritici, 72 h, 10 ppm): 0%
- inhibition at 20 ppm (Septoria tritici; Zymoseptoria tritici, 72 h, 20 ppm): 0%

Compound: CCC(=O)Oc1c(OC)ccnc1C(=O)N[C@@H](C)C(=O)O[C@@H](C)[C@@H](C)c1ccccc1C [[(1S,2S)-1-methyl-2-(o-tolyl)propyl](2S)-2-[(4-methoxy-3-propanoyloxy-pyridine-2-carbonyl)amino]propanoate, reference compound]
- inhibition at 0.03 ppm (Septoria glycines; Septoria glycines, 0.03 ppm, 100-0 scale, read-out: Activity (%) B): 0%
- inhibition at 0.06 ppm (Septoria glycines; Septoria glycines, 0.06 ppm, 100-0 scale): 0%
- inhibition at 0.03 ppm (Septoria tritici; Zymoseptoria tritici, 72 h, 0.03 ppm, 72 hrs, read-out: Activity (%) B): 50%
- inhibition at 0.06 ppm (Septoria tritici; Zymoseptoria tritici, 72 h, 0.06 ppm): 70%

Compound: COc1ccnc(C(=O)N[C@@H](C)C(=O)O[C@@H](C)[C@H](c2ccc(F)cc2C)C(C)C)c1OCOC(C)=O [[(1S,2S)-2-(4-fluoro-2-methyl-phenyl)-1,3-dimethyl-butyl](2S)-2-[[3-(acetoxymethoxy)-4-methoxy-pyridine-2-carbonyl]amino]propanoate]
- inhibition at 0.1 ppm ([1]; 0.1 ppm): 20%
- inhibition at 0.3 ppm ([1]; 0.3 ppm): 70%

Compound: CO/C=C(/C(=O)OC)c1ccccc1Oc1cc(Oc2ccccc2C#N)ncn1 [azoxystrobin, reference compound]
- Observed Activity (%) (% of untreated) (Phakopsora pachyrhizi; active ingredient alone, 2.25 g/ha): 0%
- Observed Activity (%) (% of untreated) (Phakopsora pachyrhizi; active ingredient alone, 4.5 g/ha): 15%
- Observed Activity (%) (% of untreated) (Phakopsora pachyrhizi; active ingredient alone, 9 g/ha): 23%
- Observed Activity (%) (% of untreated) (Phakopsora pachyrhizi; active ingredient alone, 18 g/ha): 9%
- Observed Activity (% of untreated) against Phakopsora pachyrhizi (Phakopsora pachyrhizi; applied alone, 2.25 g/ha): 0%
- Observed Activity (% of untreated) against Phakopsora pachyrhizi (Phakopsora pachyrhizi; applied alone, 4.5 g/ha): 15%
- Observed Activity (% of untreated) against Phakopsora pachyrhizi (Phakopsora pachyrhizi; applied alone, 9 g/ha): 23%
- Observed Activity (% of untreated) against Phakopsora pachyrhizi (Phakopsora pachyrhizi; applied alone, 18 g/ha): 9%

Compound: [Cl-].[Cu+2].[Cu+2].[OH-].[OH-].[OH-] [copper oxychloride, reference compound]
- Activity (%) B ([1]; 0.1 ppm): 0%
- Activity (%) B ([1]; 0.3 ppm): 0%
- Observed Activity (% of untreated) against Phakopsora pachyrhizi (Phakopsora pachyrhizi; applied alone, 22.5 g/ha): 2%
- Observed Activity (% of untreated) against Phakopsora pachyrhizi (Phakopsora pachyrhizi; applied alone, 45 g/ha): 5%

Compound: CC(C1CC1)C(O)(Cn1cncn1)c1ccc(Cl)cc1 (centres unmarked) [cyproconazole, reference compound]
- inhibition at 0.1 ppm (Septoria glycines; [10]): 50%
- inhibition at 0.3 ppm (Septoria glycines; Septoria glycines, 0.3 ppm): 70%
- inhibition at 0.3 ppm (Septoria glycines; [11]): 70%
- inhibition at 0.1 ppm (Septoria tritici; Zymoseptoria tritici, 72 h, 0.1 ppm, 72 hrs, 100=no disease growth, read-out: Activity (%) B): 20%
- inhibition at 0.3 ppm (Septoria tritici; Zymoseptoria tritici, 72 h, 0.3 ppm, 72 hrs, read-out: Activity (%) B): 50%
- inhibition at 0.1 ppm (Septoria tritici; [12]): 20%
- inhibition at 22.5 g/ha (Phakopsora pachyrhizi; [2]): 15%
- inhibition at 45 g/ha (Phakopsora pachyrhizi; [3]): 69%
- inhibition at 90 g/ha (Phakopsora pachyrhizi; [4]): 84%
- inhibition at 22.5 g/ha (Phakopsora pachyrhizi; [5]): 15%
- inhibition at 45 g/ha (Phakopsora pachyrhizi; [6]): 69%
- inhibition at 90 g/ha (Phakopsora pachyrhizi; [7]): 84%

Compound: CC(Cc1ccc(C(C)(C)C)cc1)CN1CCCCC1 (centres unmarked) [fenpropidin]
- inhibition at 0.1 ppm (Septoria tritici; [12]): 0%
- inhibition at 0.3 ppm (Septoria tritici; Zymoseptoria tritici, 0.3 ppm, 100-0 scale, read-out: Activity (%) B): 0%

Compound: CC(Cc1ccc(C(C)(C)C)cc1)CN1C[C@@H](C)O[C@@H](C)C1 (some centres unmarked) [fenpropimorph]
- inhibition at 0.1 ppm (Septoria glycines; [10]): 20%
- inhibition at 0.1 ppm (Septoria glycines; Septoria glycines, 0.1 ppm, read-out: Activity (%) B): 20%
- inhibition at 0.3 ppm (Septoria glycines; Septoria glycines, 0.3 ppm): 50%
- inhibition at 0.3 ppm (Septoria glycines; [11]): 50%

Compound: OC(Cn1cncn1)(c1ccc(F)cc1)c1ccccc1F (centres unmarked) [flutriafol]
- Activity (%) B (Septoria glycines; 0.1 ppm): 20%
- Activity (%) B (Septoria glycines; 0.3 ppm): 70%

Compound: Cn1cc(C(=O)Nc2ccccc2-c2cc(F)c(F)c(F)c2)c(C(F)F)n1 [fluxapyroxad, reference compound]
- Activity (%) B ([1]; 0.1 ppm): 0%
- Activity (%) B ([1]; 0.3 ppm): 0%
- Observed Activity (% of untreated) against Phakopsora pachyrhizi (Phakopsora pachyrhizi; applied alone, 2.25 g/ha): 8%
- Observed Activity (% of untreated) against Phakopsora pachyrhizi (Phakopsora pachyrhizi; applied alone, 4.5 g/ha): 7%
- Observed Activity (% of untreated) against Phakopsora pachyrhizi (Phakopsora pachyrhizi; applied alone, 9 g/ha): 66%

Compound: CC(C)C1C2CCC1c1c(NC(=O)c3cn(C)nc3C(F)F)cccc12 (centres unmarked) [isopyrazam]
- Activity (%) B (Septoria tritici; 0.1 ppm, 100-0 scale): 50%
- Activity (%) B (Septoria tritici; 0.1 ppm, 72 hrs, 100=no disease growth): 50%
- Activity (%) B (Septoria tritici; 0.3 ppm, 100-0 scale): 70%
- Activity (%) B (Septoria tritici; 0.3 ppm, 72 hrs): 70%

Compound: CC(O)(Cn1cncn1)c1ccc(Oc2ccc(Cl)cc2)cc1C(F)(F)F (centres unmarked) [mefentrifluconazole, reference compound]
- Observed Activity (% of untreated) against Phakopsora pachyrhizi (Phakopsora pachyrhizi; applied alone, 22.5 g/ha): 1%
- Observed Activity (%) (% of untreated) against Phakopsora pachyrhizi (Phakopsora pachyrhizi; applied alone, 22.5 g/ha): 1%
- Observed Activity (% of untreated) against Phakopsora pachyrhizi (Phakopsora pachyrhizi; applied alone, 45 g/ha): 20%
- Observed Activity (%) (% of untreated) against Phakopsora pachyrhizi (Phakopsora pachyrhizi; applied alone, 45 g/ha): 20%

Compound: CO/C=C(/C(=O)OC)c1ccccc1COc1cccc(C(F)(F)F)n1 [picoxystrobin]
- Activity (%) B ([1]; 0.1 ppm): 90%
- Activity (%) B ([1]; 0.3 ppm): 90%

Compound: COC(=O)N(OC)c1ccccc1COc1ccn(-c2ccc(Cl)cc2)n1 [pyraclostrobin, reference compound]
- inhibition at 2.25 g/ha (Phakopsora pachyrhizi; active ingredient alone, 2.25 g/ha, read-out: Observed Activity (%) (% of untreated)): 0%
- inhibition at 4.5 g/ha (Phakopsora pachyrhizi; active ingredient alone, 4.5 g/ha, read-out: Observed Activity (%) (% of untreated)): 0%
- inhibition at 18 g/ha (Phakopsora pachyrhizi; active ingredient alone, 18 g/ha, read-out: Observed Activity (%) (% of untreated)): 13%
- inhibition at 2.25 g/ha (Phakopsora pachyrhizi; applied alone, 2.25 g/ha, read-out: Observed Activity (% of untreated) against Phakopsora pachyrhizi): 0%
- inhibition at 4.5 g/ha (Phakopsora pachyrhizi; applied alone, 4.5 g/ha, read-out: Observed Activity (% of untreated) against Phakopsora pachyrhizi): 0%
- inhibition at 18 g/ha (Phakopsora pachyrhizi; applied alone, 18 g/ha, read-out: Observed Activity (% of untreated) against Phakopsora pachyrhizi): 13%
- Observed Activity (% of untreated) against Phakopsora pachyrhizi (Phakopsora pachyrhizi; applied alone, 9 g/ha): 1%

Compound: CC1(C)N=C(c2cnc3ccccc3c2)c2ccccc2C1(F)F [quinofumelin]
- Activity (%) B (Septoria tritici; 0.1 ppm, 100-0 scale): 0%
- Activity (%) B (Septoria tritici; 0.3 ppm, 100-0 scale): 0%

Compound: S1SSSSSSS1 [sulphur]
- inhibition at 0.1 ppm ([1]; 0.1 ppm): 0%
- inhibition at 0.3 ppm ([1]; 0.3 ppm): 0%

Compound: Mancozeb
- Observed Activity (% of untreated) against Phakopsora pachyrhizi (Phakopsora pachyrhizi; applied alone, 225 g/ha): 20%
- Observed Activity (% of untreated) against Phakopsora pachyrhizi (Phakopsora pachyrhizi; applied alone, 450 g/ha): 34%
